The test system of one data set is dog. The note with it: Chronic toxicity, beagle, Oral, Gavage/Intubation, dose end: 6 month, group: systemic.
In data set [1] the test system is mouse. Particulars: Carcinogenicity, cd1, Oral, Feed, dose end: 104 week, group: systemic.
The test system of the next data set is rat. The note with it: Combined chronic toxicity/carcinogenicity, sprague dawley, Oral, Feed, dose end: 108 week, group: systemic.
Data set [2] has as its system mouse. The note with it: Combined chronic toxicity/carcinogenicity, b6c3f1, Oral, Water, dose end: 104 week, group: systemic.
[3] abbreviates: systemic / organ weight / thyroid gland / absolute.
The mark [4] stands for this setting: systemic / organ weight / thyroid gland / absolute + systemic / hematology / platelet / platelet + systemic / in life observation / body ….
Where [5] appears, read: systemic / pathology microscopic / liver / pigmentation.
The mark [6] stands for this setting: systemic / pathology microscopic / adrenal gland / hyperplasia + systemic / pathology microscopic / thyroid gland / hyperplasia.
Where [7] appears, read: systemic / pathology microscopic / adrenal gland / hyperplasia + systemic / pathology microscopic / thyroid gland / hyperplasia + systemic….
Where [8] appears, read: systemic / in life observation / body weight / body weight.
[9] abbreviates: systemic / in life observation / body weight / body weight + systemic / in life observation / water consumption / water consumption.

Consider two molecules from EPA's ToxRefDB 2.

For orientation: LOAEL means the lowest tested level that showed an adverse finding. The NOAEL is the highest dose or exposure tested at which no adverse effect was seen. On to `COC(=O)NS(=O)(=O)c1ccc(N)cc1` [Asulam], for which the figures for the LEL in the data set with dog (setting [3]), in the data set on mouse [1] (setting [5]) and with rat (setting [6]) were 300 mg/kg/day, 74 mg/kg/day and 180 mg/kg/day, respectively. Also, the LOAEL was 300 mg/kg/day in the data set on dog (setting [3]), 8040 mg/kg/day in the data set on mouse [1] (systemic / in life observation / body weight / body weight gain + systemic / organ weight / spleen / nos) and 180 mg/kg/day with rat (setting [6]). Also, the NEL is 60 mg/kg/day with dog (setting [4]), less than 74 mg/kg/day in the data set on mouse [1] (setting [5]) and 36 mg/kg/day with rat (setting [7]). Also, the NOAEL is 60 mg/kg/day in the data set on dog (setting [4]), 730 mg/kg/day with mouse [1] (systemic / pathology microscopic / liver / pigmentation + systemic / in life observation / body weight / body weight gain + systemic / organ…) and 36 mg/kg/day in the data set with rat (setting [7]).

For the molecule `NCl` [Chloramine], in the data set with mouse [2] (setting [8]), the LEL was 6.67 mg/kg/day and the NEL was less than 6.67 mg/kg/day. Further, in the data set on mouse [2] (setting [9]), the LOAEL was more than 26.7 mg/kg/day and the NOAEL was not below 26.7 mg/kg/day.
